Measurements: patent publication US10759735B2, “Bridged bicyclic compounds and their derivatives as neuroprotective agents and methods of use thereof” (Florida Atlantic University Board of Trustees, priority 2018, dated 2020)
Entries after “also recorded” stand apart in the source; their conditions may differ.

Key:
Assay type in all cases: in vivo, Drosophila melanogaster
[1] = system: Drosophila larval neuromuscular junction synaptic transmission; test: neuromuscular junction (NMJ) postsynaptic transmission assay: time to synaptic failure under acute oxidative stress (2.25 mM H2O2); settings: for EC50: Drosophila melanogaster, read-out: EC50 (half-maximal effective concentration) in protecting neurotransmission from H2O2 exposure, 2.25 mM H2O2 in HL3 saline, w1118 third instar larvae, from % maximal response of time to synaptic failure
Description: Small molecule-mediated neuroprotection is an area of research that has important implications for several maladies such as migraine, Alzheimer's disease, and stroke. One promising method to measure the neuroprotective effects of various medicinal compounds against oxidative stress in D. melanogaster has been developed (Caplan et al. Journal of Neurophysiology, 2013, 109, 3, 649-658). In this phenotypic model, fly larvae have their synaptic transmission measured via electrical probes in the post-synaptic neuromuscular junction (NMJ). The time until synaptic failure is first measured to obtain a control. An oxidizing solution (2.25 mM of hydrogen peroxide) is then introduced to the tissue and the time to synaptic failure is again measured. Hydrogen peroxide greatly reduces the time to synaptic failure relative to the control by damaging neurons through oxidative stress. Once the time to synaptic failure has been established with hydrogen peroxide alone, then different compounds can be introduced at varying concentrations along with the hydrogen peroxide solution, and their effects on the time to synaptic failure are measured and compared to the two controls.
A series of compounds generated using the methods described herein were subjected to a neuromuscular junction (NMJ) postsynaptic transmission assay. Resveratrol was included as a neuroprotectant control. When a wash of hydrogen peroxide (2.25 mM) was introduced, the time to synaptic failure was shortened from approximately 150 min to approximately 40 min (FIG. 2). Introducing resveratrol at 25 nM restored the time to synaptic failure to approximately 150 min upon addition of hydrogen peroxide (2.25 mM).
To quantify tolerance of neurotransmission to acute oxidative stress, electrophysiological recordings from Drosophila larval preparations were conducted in a hemolymph-like 3 (HL3) saline containing 2.25 mM hydrogen peroxide (H2O2).
Wandering third instar larvae (≈110 hours old) from the fruit fly, Drosophila melanogaster, were utilized for all electrophysiological experiments described throughout this study. Larvae were reared at 25° C. on 12 h:12 h light-dark (LD) cycles in an incubator. Only w^1118 larvae were utilized in this study.
(§1) All electrophysiological experiments were performed as previously described with the exception of the resistance of the intracellular electrodes (60-90 MΩ) (Caplan et al. J. Neurophys. 109, 649-658). Excitatory junction potentials (EJPs) were elicited via repetitive stimulation (0.3 ms pulses delivered suprathreshold at a frequency of 1 Hz) and measured until synaptic failure occurred, which was characterized by an EJP amplitude of <1 mV being recorded. Electrophysiological recordings from larval preparations were conducted in hemolymph-like 3 (HL3) saline containing 2.25 mM H2O2. […] HL3 saline containing 1.5 mM Ca^2+ and 20 mM Mg^2+ was used as the recording saline throughout this study. HL3 has been utilized by other research groups to record EJPs.^20 Intracellular recordings of resting membrane potential were taken from Drosophila larval muscle 6.
All test compounds and H2O2 were applied to the Drosophila larval NMJ preparation as previously described by Caplan et al. (supra). However, the compounds utilized in the Caplan et al. work were dissolved in dimethyl sulfoxide (DMSO), whereas the compounds utilized in the present study are water-soluble at the concentrations used and thus were dissolved in ddH2O.
The statistics utilized in the vertical bar charts and line graphs were performed as previously described with the exception of the error bars being presented as mean±SEM instead of mean±SD. The EC50, or half maximal effective concentration, of each test compound was determined by plotting the logio(compound dose) against the corresponding average percentage of the maximal effectiveness, as previously described (Caplan et al. J. Neurophys. 109, 649-658).

[2] = system: excitatory junction potential (EJP) at the Drosophila NMJ; test: control recordings of excitatory junction potential (EJP) shape and amplitude; settings: 1 nM, in the presence and absence of 2.25 mM H2O2, ten minutes after bath switch
Description: In all panels, the curved black line represents the average EJP in hemolymph-like saline (HL3) one minute before the recording bath was replaced with HL3 containing the drug alone or the drug and H2O2. The curved gray line represents the average EJP from the same larvae ten minutes after the bath was switched from HL3 saline to HL3 containing either the drug alone or the drug and H2O2.

[3] = system: Drosophila larval muscle 6 resting membrane potential; test: intracellular recording of resting membrane potential (RMP) during acute oxidative stress; settings: 1 nM with 2.25 mM H2O2 versus H2O2 alone
Description: FIGS. 8A and 8B are a pair of graphs showing that during acute oxidative stress, Drosophila larval muscle resting membrane potential (RMP) and EJP amplitude decline. […] 8B) EJP amplitude was recorded in the same larval preparations (n=5 per group). […] Data is presented as mean±SEM.
To ensure that the results obtained using compound 1 and resveratrol were not due to changes in the EJP, additional control experiments were performed, as previously described (Caplan et al. J. Neurophys. 109, 649-658). […] It was also observed that resting membrane potential (RMP) and EJP amplitude decline in larvae treated with H2O2 alone and H2O2 with 1 nM compound 1 (see FIGS. 8A. 8B).
as §1, with “HL3 has been utilized by other research groups to record EJPs.^20 Intracellular recordings of resting membrane potential were taken from Drosophila larval muscle 6.” left out

COc1cc(OC)cc(C2CC3C(O)C(C)=C(C)C2(C(=O)O)C3O)c1 (racemic) [compound 2, 7-(3,5-dimethoxyphenyl)-4,8-dihydroxy-2,3-dimethylbicyclo[3.2.1]oct-2-ene-1-carboxylic acid]
EC50 [1]: 2.99 nM | time to synaptic failure during H2O2 exposure compared to control preparations ([1]; higher doses, P<0.001): significantly increased time to synaptic failure | time to failure during H2O2 exposure ([1]; low doses (0.1 nM and 0.5 nM)): did not prolong time to failure | time to synaptic failure compared to control ([1]; only at the 5.0 nM dosage, 2.25 mM H2O2, P<0.001): similarly increased time to synaptic failure | EC50 relative to compound 1 ([1]; ratio of EC50 values): over ten-fold higher

COc1cc(OC)cc(C2CC3C(OC(C)=O)C(C)=C(C)C2(C(=O)O)C3OC(C)=O)c1 (racemic) [compound 1, 7-(3,5-dimethoxyphenyl)-4,8-diacetoxy-2,3-dimethylbicyclo[3.2.1]oct-2-ene-1-carboxylic acid]
time until synaptic failure restored ([1]; 0.5 nM, in the presence of hydrogen peroxide): 80% | normal synaptic function maintained ([1]; 25 nM, H2O2 2.25 mM, wild-type fruit fly larvae): 100% | time to synaptic failure compared to control and resveratrol-treated preparations ([1]; 0.5-5 nM dosage range, 2.25 mM H2O2, P<0.001): significantly increased time to synaptic failure | EC50 [1]: ~0.21 nM | neuroprotection in screening of initial compounds ([1]; H2O2 2.25 mM, wild-type fruit fly larvae): potent neuroprotectants | neuroprotective effect compared to resveratrol across dosages ([1]; almost all dosages tested (0.5 nM to 25 nM)): stronger neuroprotective effects | protection of synaptic transmission from acute oxidative stress ([1]; at a subnanomolar level): protect synaptic transmission from acute oxidative stress | dose dependence of neuroprotective effect ([1]; dose-response, 2.25 mM H2O2): dose-dependent manner | neuroprotective effect at lowest dose ([1]; doses as low as 500 pM, H2O2 exposure): strong neuroprotective effects | ion channel stabilization ([1]; general statement ('appear to have'), no separate test described): ion channel stabilization effects | toxicity ([1]; general statement, no separate test described): non-toxic | time until synaptic failure compared to control larvae treated with 2.25 mM H2O2 only ([1]; low doses (0.5 nM and 1 nM)): significantly increased the amount of time until synaptic failure | neuroprotective effect compared to resveratrol ([1]; similar dosage of resveratrol, P<0.001): stronger neuroprotective effects | acute effect on the shape or amplitude of the EJP [2]: do not have a significant acute effect; also recorded: do not acutely affect | decline of resting membrane potential (RMP) [3]: significantly slowed the decline of RMP

Oc1ccc(C=Cc2cc(O)cc(O)c2)cc1 [resveratrol, reference compound]
time to synaptic failure ([1]; 25 nM with hydrogen peroxide 2.25 mM (H2O2 alone approx. 40 min, no H2O2 approx. 150 min)): approximately 150 min | neuroprotectant activity from the dose curve ([1]; at the chosen dosages, unusual dose curve, EC50 not reliably determinable): does not act as a neuroprotectant | acute effect on the shape or amplitude of the EJP [2]: do not have a significant acute effect; also recorded: do not acutely affect
